Laboratory results from patent publication US20150315202A1, “CHLORIN DERIVATIVE USEFUL IN PHOTODYNAMIC THERAPY AND DIAGNOSIS” (RMW CHO GROUP LIMITED, priority 2012, published 2015).
“Also recorded” adds a separate entry of the source. Read-outs that look alike come from different tables or passages of the source.

Columns and labels:
S180 sarcoma = test: Photodynamic therapy study with mice with subcutaneous S180 sarcoma; type: in vivo, Kunming mice; settings: for Pathological changes of tumour tissues (HE staining): 24 hours after the treatment; for Living tumour cells versus control group D (FCM) / Proportions of apoptotic and necrotic tumour cells versus control group D (FCM): 24 hours after treatments; for Mean tumour volume versus control group D: 21 days after the treatments, P<0.05; for Tumour appearance after treatment (eschars): after treatments; for Sizes of tumours versus control group D: six days after the treatments; for Tumour inhibition rate: tail vein: Duteroporphyrin 10 mg/kg, chlorin e4 sodium 20 mg/kg, 5-ALA 100 mg/kg, laser 20 minutes, 180 J/cm^2
Experimental: In this experiment the effects of photodynamic therapy mediated by three different photosensitizers, namely Duteroporphyrin, chlorin e4 sodium and 5-ALA, on mouse S180 sarcoma were observed. Duteroporphyrin and 5-ALA are porphyrin derivatives.
40 Kunming mice with well grown subcutaneous S180 sarcoma were randomly divided into four groups: (A) Duteroporphyrin group (10 mg/kg), (B) chlorin e4 sodium group (20 mg/kg), (C) 5-ALA group (100 mg/kg) and (D) blank control group. The mice in groups A and B were subjected to irradiation 8-10 hours after tail vein injection of the photo sensitizers, while the mice in group C were subjected to irradiation 3 hours after tail vein injection of the photosensitizer. A laser with a wavelength of 630 nm was used for groups A and C, while a duel-frequency laser with wavelengths of 660 nm and 760 nm was used for group B. The local tumour sites were irradiated vertically, with the diameter of the laser spots being 1.2-1.5 cm. The whole tumour and 3-5 mm of normal tissue around the tumour were covered by the laser. The lasers were applied to groups A, B and C for 20 minutes, with a power density of 150 mW/cm^2 and an energy density of 180 J/cm^2. The mice in control group D were not subjected to irradiation.

[1] = air-saturated water and ethanol; literature value of the reference; cited from earlier work
[2] = literature value of the reference, cited from earlier work
[3] = system: indomethacin-induced gastric lesions; settings: rats; cited from earlier work
[4] = system: TAA- or CCl4-induced acute liver injuries; settings: mice; cited from earlier work
[5] = system: advanced non-small cell lung cancer; test: Clinical study with patients suffering from advanced non-small cell lung cancer; type: in vivo, human
Experimental: Through pathology or cytology diagnosis, 66 advanced non-small cell lung cancer patients were selected and randomly divided into two groups. Group A had 32 patients who were treated with chlorin e4 sodium. Group B had 34 patients who were treated with both chemotherapy and radiotherapy.
For group A, chlorin e4 sodium was administered at a dosage of 2 mg per kilogram of body weight, with two thirds administered by inhalation and one third administered orally. After the irradiation target(s) had been determined, an optical fibre for laser treatment purposes was guided into the lung tumor(s) via an interstitial procedure. Irradiation light intensity was 200 J/cm^2, irradiation power was 1,000 mW, and irradiation lasted for eight to ten minutes. Laser irradiation into the tumor was two to five centimeters in depth. Irradiation was either performed phase by phase (sub-paragraph treatment) based on tumor size or performed repeatedly.
For group B, for the radiotherapy, a 15 MV X-ray radiation therapy irradiation field covered primary lung tumor lesion(s) and mediastinal lymphatic drainage area, with a dosage of 65-70 Gy, administered on every first day in a week of radiotherapy. For the chemotherapy, 20 mg cisplatin was administered by intravenous application.

[6] = treatment of various human ailments; cited from earlier work
[7] = group A (32 patients): chlorin e4 sodium 2 mg/kg inhalation and oral + interstitial laser, group B (34 patients): cisplatin 20 mg iv + radiotherapy

For NCC(=O)CCC(=O)O [5-ALA], the “Pathological changes of tumour tissues (HE staining)” value (S180 sarcoma) was “a wide range of tumour necrosis, tumour vascular disruption and neutrophil infiltration”, the “Living tumour cells versus control group D (FCM)” value (S180 sarcoma) was “obviously fewer” and the “Proportions of apoptotic and necrotic tumour cells versus control group D (FCM)” value (S180 sarcoma) was “a lot higher”. For the same molecule, the “Mean tumour volume versus control group D” value (S180 sarcoma) was “statistically significantly smaller”, the “Recovery of skins and fur” value (S180 sarcoma; after the eschars had fallen off) was “fully recovered; also recorded: fastest in skin repairing” and the “Tumour appearance after treatment (eschars)” value (S180 sarcoma) was “thinner and brownish red in colour”. For the same molecule, the “Sizes of tumours versus control group D” value (S180 sarcoma) was “no obvious difference” and the Tumour inhibition rate (S180 sarcoma) was 37.2%.
For CC1=Cc2cc3[nH]c(cc4nc(cc5[nH]c(cc1n2)cc5C)C(C)=C4CCC(=O)O)c(CCC(=O)O)c3C [Duteroporphyrin], the “Pathological changes of tumour tissues (HE staining)” value (S180 sarcoma) was “a wide range of tumour necrosis, tumour vascular disruption and neutrophil infiltration”, the “Living tumour cells versus control group D (FCM)” value (S180 sarcoma) was “obviously fewer” and the “Proportions of apoptotic and necrotic tumour cells versus control group D (FCM)” value (S180 sarcoma) was “a lot higher”. The “Mean tumour volume versus control group D” value (S180 sarcoma) was “statistically significantly smaller”, the “Tumour appearance after treatment (eschars)” value (S180 sarcoma) was “Black eschars” and the “Recovery of skins and fur” value (S180 sarcoma; mouse, in vivo) was “fully recovered”. The “Sizes of tumours versus control group D” value (S180 sarcoma) was “no obvious difference” and the Tumour inhibition rate (S180 sarcoma) was 62.5%.
In the case of O=S(=O)(O)c1ccc(-c2c3nc(c(-c4ccc(S(=O)(=O)O)cc4)c4ccc([nH]4)c(-c4ccc(S(=O)(=O)O)cc4)c4nc(c(-c5ccc(S(=O)(=O)O)cc5)c5ccc2[nH]5)C=C4)C=C3)cc1 [TPPS, m-tetrakis(p-sulfonatophenyl)porphine], the Fluorescence quantum yield [1] is given as 0.08, the “Quantum yield of singlet oxygen photogeneration” value ([2]; ethanol and detergent containing water) is given as 0.7 and the “Quantum yield of singlet oxygen photogeneration” value ([2]; water) is given as 0.6.
For C=Cc1c(C)c2cc3nc(c(C)c4[nH]c(cc5nc(cc1[nH]2)C(C)=C5CC)c(C)c4C(=O)O)[C@@H](CCC(=O)O)[C@@H]3C [chlorin e4], the “Effect against indomethacin-induced gastric lesions” value [3] is given as “protective effect” and the “Effect against TAA- or CCl4-induced acute liver injuries” value [4] is given as “protective effect”.
With N.N.[Cl][Pt][Cl] [cisplatin, reference compound] the “One year survival rate” value [5, 7] was 70.60%, the “Two years survival rate” value [5, 7] was 32.35% and the “Combined complete and partial remission rate” value ([5]; group A: chlorin e4 sodium 2 mg/kg + interstitial laser, group B: cisplatin 20 mg iv + radiotherapy) was 21.30%.
For tri-sodium copper(II) chlorin e6, the “Toxicity and side effects” value [6] is listed as “no evidence of toxicity, skin sensitization or other serious side effects”.
